From patent US6645755B1, “VECTOR MODIFIED BY SEQUENCE CODING FOR A SEQUENCE OF AMINO ACIDS CONTAINED IN A MAMMALIAN PROTEIN HAVING THE BIOLOGICAL ACTIVITY OF A MEMBRANE RECEPTOR, EXPRESSION OF THIS SEQUENCE IN TRANSFORMED UNICELLULAR CULTURES BY MEANS OF THIS VECTOR, PROCEDURE FOR STUDYING LIGANDS RECOGNIZING THESE RECEPTORS” (Centre National de la Recherche Scientifique, priority 1988, dated 2003)
Read-outs that look alike come from different tables or passages of the source.

Columns and labels:
mamm. β1AR = conditions: reference mammalian tissues, cited from earlier work; for mamm. β1/β2: Ki ratio
mamm. β2AR = conditions: reference mammalian tissues; cited from earlier work
Huβ1AR [1] = test: Competition binding against ICYP on E. coli expressing Huβ1AR (pSMLβ1); conditions: ratio of Ki on Huβ1AR and Huβ2AR expressed in E. coli
Huβ2AR = Huβ2AR (Homo sapiens, UniProt P07550); test: Competition binding against ICYP on E. coli expressing Huβ2AR (pSMLβ2)
Huβ1AR [2] = biological target: Huβ1AR (Homo sapiens, UniProt P08588); test: Competition binding against ICYP on E. coli expressing Huβ1AR (pSMLβ1)
Sequence of Huβ1AR (Homo sapiens, UniProt P08588) (P08588 58-377 limits assumed): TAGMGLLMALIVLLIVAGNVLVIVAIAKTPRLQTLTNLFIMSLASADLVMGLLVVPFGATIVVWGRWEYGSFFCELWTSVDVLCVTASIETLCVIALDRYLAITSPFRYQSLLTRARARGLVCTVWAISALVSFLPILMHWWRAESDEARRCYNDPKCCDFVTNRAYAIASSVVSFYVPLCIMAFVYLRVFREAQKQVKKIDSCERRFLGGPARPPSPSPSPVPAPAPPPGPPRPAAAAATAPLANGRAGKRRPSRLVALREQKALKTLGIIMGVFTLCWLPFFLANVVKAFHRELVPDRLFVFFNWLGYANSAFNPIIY

[3] = biological target: T1, human β2-adrenergic receptor (Homo sapiens, UniProt P07550); test: cell-based; type: binding
T1 construct: extending from the NcoI site to the DraI site which contained the coding region for the human β2-adrenergic receptor; β-galactosidase (lacZ product of λgt11, fused at the EcoRI site near the 3' end of lacZ) (N); linker Asp-Asp-Pro (acid-cleavable) (N); expressed in transfected cells; host or cells: E. coli Y1089 lysogenized with recombinant λgt11

**Q.** For CS(=O)(=O)O.Cn1cc(C(F)(F)F)nc1-c1ccc(OCC(O)CNCCOc2ccc(O)c(C(N)=O)c2)cc1 (centres unmarked) [CGP 20712-A], which “mamm. β1/β2” value (mamm. β1AR) is on record?
**A.** The value was 0,003.

**Q.** And the Ki (mamm. β1AR)?
**A.** The Ki was 3.24 nM.

**Q.** What about the Ki (mamm. β2AR) of the same compound?
**A.** The Ki was 982 nM.

**Q.** And the “E. coli Kiβ1/Kiβ2” value (Huβ1AR [1])?
**A.** The value was 0,0005.

**Q.** What does the source list for Cc1ccc(OCC(O)C(C)NC(C)C)c2c1CCC2 (centres unmarked) [ICI 118,551]?
**A.** mamm. β1/β2 (mamm. β1AR): 130; Ki (mamm. β1AR): 86 nM

**Q.** Which results are given for OC(CNCC(O)C1CCc2cc(F)ccc2O1)C1CCc2cc(F)ccc2O1 (centres unmarked) [R67555]?
**A.** mamm. β1/β2 (mamm. β1AR): 0,02; Ki (mamm. β1AR): 0.9 nM; Ki (mamm. β2AR): 46 nM; Ki (Huβ2AR; read-out: Ki E. coli Huβ2AR, 10 pM ICYP as radioligand, Ki calculated from IC50): 3.83 nM

**Q.** What does the source list for CC(C)(C)NCC(O)c1cc(Cl)c(N)c(Cl)c1 (centres unmarked) [clembuterol]?
**A.** mamm. β1/β2 (mamm. β1AR): 5,1; Ki (mamm. β1AR): 71 nM; Ki (mamm. β2AR): 14 nM; Ki (Huβ1AR [2]; read-out: Ki E. coli Huβ1AR, 10 pM ICYP as radioligand, Ki calculated from IC50): 37 nM

**Q.** Which “mamm. β1/β2” value (mamm. β1AR) does the source give for CNC[C@H](O)c1ccc(O)c(O)c1 [epinephrine] here?
**A.** The value was 4,7.

**Q.** And the Ki (mamm. β1AR)?
**A.** Its Ki is 1900 nM.

**Q.** And the Ki (mamm. β2AR)?
**A.** Its Ki is 403 nM.

**Q.** Which “mamm. β1/β2” value (mamm. β1AR) does the source give for NC[C@H](O)c1ccc(O)c(O)c1 [norepinephrine] here?
**A.** Its value is 1,49.

**Q.** And the Ki (mamm. β1AR)?
**A.** Its Ki is 2800 nM.

**Q.** What about the Ki (mamm. β2AR) of the same compound?
**A.** Its Ki is 1880 nM.

**Q.** For CCC(NC(C)C)C(O)c1ccc(O)c2[nH]c(=O)ccc12 (centres unmarked) [procaterol], which Ki (Huβ2AR) is on record?
**A.** Its Ki is 55.3 nM.

**Q.** What about the Ki [3] of the same compound?
**A.** The Ki was 40 ± 8 nM.

**Q.** And the Ki (Huβ1AR [2])?
**A.** The Ki was 4650 nM.

**Q.** What about the “E. coli Kiβ1/Kiβ2” value (Huβ1AR [1]) of the same compound?
**A.** Its value is 84,1.

**Q.** For CC(C)NCC(O)COc1cccc2ccccc12 (centres unmarked) [propranolol], which “mamm. β1/β2” value (mamm. β1AR) is on record?
**A.** Its value is 5,5.

**Q.** Which “mamm. β1/β2” value (mamm. β1AR) does the source give for CC(C)(Cc1ccccc1)NCC(O)c1ccc(O)c(NS(C)(=O)=O)c1 (centres unmarked) [zinterol] here?
**A.** Its value is 8,1.

**Q.** What about the Ki (mamm. β1AR) of the same compound?
**A.** The Ki was 170 nM.

**Q.** And the Ki (mamm. β2AR)?
**A.** Its Ki is 21 nM.

**Q.** And the Ki (Huβ2AR)?
**A.** The Ki was 9.14 nM.

**Q.** And the Ki (Huβ1AR [2])?
**A.** The Ki was 168 nM.

**Q.** And the “E. coli Kiβ1/Kiβ2” value (Huβ1AR [1])?
**A.** Its value is 18,4.

**Q.** Which Ki [3] does the source give for (−) epinephrine here?
**A.** Its Ki is 4700 ± 1400 nM.
